Source: patent US6492365B1, “Microsomal triglyceride transfer protein” (Bristol-Myers Squibb Company, priority 1992, dated 2002)
Structures can show the parent of a compound that is named as a salt.

Target: T1, bovine MTP (Bos taurus, UniProt P55156)
T1 construct: with about 50-200 ng purified MTP in the well of a 96-well plate; from tissue; host or cells: bovine liver
T1 sequence (P55156 12-887): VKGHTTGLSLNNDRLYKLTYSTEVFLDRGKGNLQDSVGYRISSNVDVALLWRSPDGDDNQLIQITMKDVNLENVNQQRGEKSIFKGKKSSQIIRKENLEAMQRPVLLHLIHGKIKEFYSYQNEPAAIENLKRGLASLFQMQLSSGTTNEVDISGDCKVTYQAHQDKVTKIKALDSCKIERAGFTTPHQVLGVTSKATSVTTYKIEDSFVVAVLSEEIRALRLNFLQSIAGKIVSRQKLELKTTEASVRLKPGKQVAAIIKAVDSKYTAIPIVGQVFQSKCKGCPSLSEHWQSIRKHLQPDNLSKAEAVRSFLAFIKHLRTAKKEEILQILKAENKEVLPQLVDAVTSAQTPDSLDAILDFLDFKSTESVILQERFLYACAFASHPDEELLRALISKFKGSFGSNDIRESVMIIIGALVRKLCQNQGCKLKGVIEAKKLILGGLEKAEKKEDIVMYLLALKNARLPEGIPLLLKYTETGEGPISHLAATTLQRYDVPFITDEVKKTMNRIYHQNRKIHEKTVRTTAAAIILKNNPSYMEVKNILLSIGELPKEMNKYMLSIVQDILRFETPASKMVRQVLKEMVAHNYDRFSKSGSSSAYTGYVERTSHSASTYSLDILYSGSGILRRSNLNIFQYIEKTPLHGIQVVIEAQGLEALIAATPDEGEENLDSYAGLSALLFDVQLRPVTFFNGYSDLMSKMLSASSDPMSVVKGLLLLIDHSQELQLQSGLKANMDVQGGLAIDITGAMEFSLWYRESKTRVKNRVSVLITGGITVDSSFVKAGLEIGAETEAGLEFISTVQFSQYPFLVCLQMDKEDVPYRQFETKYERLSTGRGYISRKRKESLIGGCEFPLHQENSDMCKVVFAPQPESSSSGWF
T1 sequence (P05307 21-510 partner): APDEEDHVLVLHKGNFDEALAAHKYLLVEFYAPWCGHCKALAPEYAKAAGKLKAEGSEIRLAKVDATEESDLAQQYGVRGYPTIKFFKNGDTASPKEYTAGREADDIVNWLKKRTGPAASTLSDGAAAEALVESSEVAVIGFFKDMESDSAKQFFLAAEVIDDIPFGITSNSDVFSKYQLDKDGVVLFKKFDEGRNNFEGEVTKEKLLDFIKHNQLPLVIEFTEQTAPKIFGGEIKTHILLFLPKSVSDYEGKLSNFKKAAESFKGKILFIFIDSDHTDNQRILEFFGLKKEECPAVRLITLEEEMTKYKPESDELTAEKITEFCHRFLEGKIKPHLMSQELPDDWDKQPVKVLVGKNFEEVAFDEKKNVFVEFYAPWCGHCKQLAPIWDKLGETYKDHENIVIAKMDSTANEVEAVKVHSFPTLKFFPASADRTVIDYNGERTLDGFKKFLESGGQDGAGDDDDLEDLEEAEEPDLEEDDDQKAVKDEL
Assay: MTP-catalyzed transport of radiolabeled TG from donor SUV to acceptor SUV
Format: biochemical
Details: for IC50: 30 minutes at 37° C., read-out: IC50 for inhibition of MTP-catalyzed TG transport from donor SUV to acceptor SUV
Experimental: (§1) Compound A was dissolved in DMSO and then diluted into 15/40 buffer. Aliquots were added to a lipid transfer assay to bring the compound to the indicated final concentrations. DMSO concentration in the assay never exceeded 2 μL/600 μL, a concentration that was independently determined to have minimal effect on the assay. MTP-catalyzed lipid transport was measured for 30 minutes at 37° C. TG transfer was calculated and compared to a control assay without inhibitor.
as §1, with “Compound B” for “Compound A”
TG transfer activity was measured as the protein-stimulated rate of TG transfer from donor SUV to acceptor SUV. To prepare donor and acceptor vesicles, the appropriate lipids in chloroform were mixed in a 16×125 mm borosilicate glass screw cap tube (Fisher Scientific Co., Pittsburg, Pa., Cat. no. 14-933-1A) and then dried under a stream of nitrogen. Two mL 15/40 buffer (15 mM Tris, pH 7.4, 40 mM sodium chloride, 1 mM EDTA, and 0.02% NaN3) were added to the dried lipids (or 100 μL per assay, which ever is the least volume), a stream of nitrogen was blown over the buffer, then the cap was quickly screwed on to trap a nitrogen atmosphere over the lipid suspension. […]
The ^14C-TG and ^3H-PC remaining in the supernatant were quantitated by scintillation counting. TG transfer was calculated by comparing the ratio of ^14C-TG (transferred from the donor membranes to the acceptor membranes) to ^3H-PC (a marker of acceptor vesicle recovery) present in the supernatant following a transfer reaction to the ratio of total donor ^14C-TG to acceptor [^3H]PC in the assay before the transfer reaction. The percentage of ^14C-TG transfer was calculated as follows: [formula] […]

Compound	IC50 [nM]	decrease of TG transfer (at concentrations that inhibited approximately 40% of PC transfer)
O=C1c2ccccc2CN1C1CCN(CCC(c2ccccc2)c2ccccc2)CC1 [compound A, 2-[1-(3,3-diphenylpropyl)-4-piperdinyl]-2,3-dihydro-3-oxo-1H-isoindole hydrochloride]	~1000	more than 80%
COc1ccccc1N1CCN(CC2CC(=O)c3ccc(F)cc3C2)CC1 (stereo not drawn) [compound B, 1-[3-(6-fluoro-1-tetralanyl)methyl]-4-O-methoxyphenyl piperazine]	4000 to 6000	
